Drawing on US6063803A, “Octahydropyrrolo-[3,4-c]carbazoles useful as analgesic agents” (Ortho-McNeil Pharmaceutical, Inc., priority 1999, dated 2000), this text covers % of mice protected from abdominal constriction (non-responders), responders and ED50 for 32 compounds.

Where a name gives a salt, the structure may show the parent alone. Read-outs that look alike come from different tables or passages of the source.

Assay [1] in a line: mouse acetylcholine bromide-induced abdominal constriction assay. It counts as in vivo, mice (Male, Cr1:CD-1). The settings on record: Mus musculus; for % of mice protected from abdominal constriction (non-responders) at 30 mg/kg / responders at 30 mg/kg: 0.5 h, acetylcholine bromide 5.5 mg/kg i.p. 30 min later. As to the method: The analgesic activity of compounds of Formula I were determined in the following in vivo assay. The procedure was run essentially as described by H. Collier et al. in B. J. Pharmacol. Chemother., 32: 295-310, 1968, with minor modifications. Mice (Male, Cr1:CD-1, Charles River Laboratories) were used in the following example. The test drugs or appropriate vehicle were administered orally (10 mL/kg, p.o.) or subcutaneously (10 mL/kg, s.c.) and 30 minutes later the animal received an intraperitoneal (i.p.) injection of 5.5 mg/kg acetylcholine bromide. The mice were then placed in glass bell jars and observed for a ten minute observation period for the occurrence of an abdominal constriction response (defined as a wave of constriction and elongation passing caudally along the abdominal wall, accompanied by a twisting of the trunk and followed by extension of the hind limbs). The percent inhibition of this response to antinociceptive stimulus (equated to % analgesia) was calculated as follows: The % inhibition of response, i.e., % analgesia is equal to the number of non-responding drug-treated animals×100 divided by the number of animals in the group.
The ED50 values and their 95% fiducial limits were determined by a computer assisted probit analysis. […] This effect lasted for 4-5 hours.
Table A lists the % inhibition for some compounds of the invention. Unless otherwise indicated the compounds were administered s.c. at 30 mg/kg. [drawing 63]

A short description of assay [2]: mouse hot plate assay (48° C.). The settings on record: Mus musculus, po, 0.5 h. It counts as in vivo, mice. On the procedure:
The test was essentially described by N. Eddy and D. Leimbach, Synthetic Analgesics II Dithienylbutenyl- and Dithienylbutylamines, J. Pharmacol. Exp. Ther., 107, 385-93 (1953) and J. O'Callaghan and S. Holtzman, Qualification of the Analgesic Activity of Narcotic Antagonists by a Modified Hot-Plate Procedure, J. Pharmacol. Exp. Ther, 192, 497-505 (1975), with minor modifications. Mice were placed on a heated surface (48° C.) and the time interval (seconds) between placement and a shaking, licking, or tucking of the hind paw was recorded as the predrug latency response. This procedure was repeated 30 minutes after the administration of a test compound (p.o., 10 mL/kg). The percent maximum possible antinociceptive effect (% MPE) was determined using the following formula: % MPE=100×(Test latency-Predrug latency)/(Cutoff time-Predrug Latency), using the predrug latency of each animal and cutoff time established to prevent injury to the animal. The cutoff time was 90s.
The ED50 value and 95% confidence intervals were determined using a computer-assisted linear regression analysis of the dose-response curve, including an analysis of variance test for linearity. Oral dosing of Compound 58 produced an analgesic effect after 15 min. This effect lasted for one hour.
Background: Thermal pain tests record how soon the animal reacts.

Assay [3] can be described thus: rat air-induced writhing (abdominal constriction) assay. It counts as in vivo, rats. Conditions: Rattus norvegicus, po. On the procedure:
The analgesic activity was determined in another model using rats as the test animal. The procedure was essentially described by P. VonVoightlander et al. in Air-induced Writhing, a Rapid Broad Spectrum Assay for Analgesics, Drug Dev. Res., 2, 577-81, (1982). The test compound or vehicle was administered p.o. (2 mL/kg) and after 30 min, the animals received an i.p. injection of air (10 mL). The animals were placed into individual observation chambers and observed for 30 min for the occurrence of abdominal constriction as defined above. The percent inhibition of this response was calculated as follows. The % inhibition of response, i.e., % analgesia is equal to the number nonresponding drug-treated animals×100 divided by the number of animals in the group. […] This effect lasted for 2-3 hours.
Background: Writhing tests count abdominal constrictions after an irritant is injected.

[4] abbreviates: sc, 30 mg/kg s.c., read-out: % inhibition @ 30 mg/kg.
[5] abbreviates: 30 mg/kg po, read-out: % inhibition @ 30 mg/kg (po).

With `Cc1ccc2c3c([nH]c2c1C)CC[C@H]1CN(C)C[C@@H]31` (relative stereo) [Compound 34], the % of mice protected from abdominal constriction (non-responders) at 30 mg/kg in assay [1] (setting [4]) worked out at 100%.

For the compound `CN1C[C@@H]2CCc3[nH]c4cc(Cl)ccc4c3[C@@H]2C1` (relative stereo) [Compound 37], the responders at 30 mg/kg in assay [1] (setting [4]) came to 100%.

For the compound `CN1C[C@@H]2CCc3[nH]c4c(Cl)ccc(Cl)c4c3[C@@H]2C1` (relative stereo) [Compound 33], the % of mice protected from abdominal constriction (non-responders) at 30 mg/kg in assay [1] (setting [4]) was determined as 33%.

Consider `Cc1cccc2c3c([nH]c12)CC[C@H]1CN(C)C[C@@H]31` (relative stereo) [Compound 40, (±)-3aα,10cα,-1,2,3,3a,4,5,6,10c-octahydro-2,7-dimethylpyrrolo[3,4-c]carbazole], for which the responders at 30 mg/kg in assay [1] (setting [5]) was found to be 87%.

With `CN1C[C@@H]2CCc3[nH]c4c(F)cccc4c3[C@@H]2C1` (relative stereo) [Compound 47], in assay [1] (setting [5]), the responders at 30 mg/kg was found to be 93%.

In the case of `CC(C)(C)N1C[C@@H]2CCc3[nH]c4ccccc4c3[C@@H]2C1` (relative stereo) [Compound 53], the % of mice protected from abdominal constriction (non-responders) at 30 mg/kg in assay [1] (setting [4]) amounted to 100%.

Take `CN1C[C@@H]2CCc3[nH]c4c(Cl)cccc4c3[C@@H]2C1` (relative stereo) [Compound 35]: the responders at 30 mg/kg in assay [1] (setting [4]) was determined as 93%.

Consider `CN1C[C@@H]2CCc3[nH]c4ccc(Br)cc4c3[C@@H]2C1` (relative stereo) [Compound 36], for which the responders at 30 mg/kg in assay [1] (setting [4]) was 100%.

With `CN1C[C@@H]2CCc3[nH]c4cccc(C(F)(F)F)c4c3[C@@H]2C1` (relative stereo) [Compound 42], in assay [1] (setting [4]), the % of mice protected from abdominal constriction (non-responders) at 30 mg/kg came out at 60%.

With `CCc1cccc2c3c([nH]c12)CC[C@H]1CN(C)C[C@@H]31` (relative stereo) [Compound 46], in assay [1] (setting [4]), the % of mice protected from abdominal constriction (non-responders) at 30 mg/kg was 100%.

Take `CN1C[C@@H]2CCc3[nH]c4cc(F)cc(F)c4c3[C@@H]2C1` (relative stereo) [Compound 50]: in assay [1] (setting [4]), the % of mice protected from abdominal constriction (non-responders) at 30 mg/kg amounted to 100%.

For `C[C@@H]1C[C@H]2CN(C)C[C@H]2c2c1[nH]c1ccccc21` (relative stereo) [Compound 88, (±)-3aα,5α,10cα-4,5,6,10c-Octahydro-2,5-dimethylpyrrolo[3,4-c]carbazole], the responders at 30 mg/kg in assay [1] (setting [5]) was determined as 93%.

Consider `c1ccc2c3c([nH]c2c1)CC[C@H]1CNC[C@@H]31` (relative stereo) [Compound 64, (±)-3aα,10cα-4,5,6,10c-Octahydropyrrolo[3,4-c]carbazole], for which, in assay [1] (setting [4]), the responders at 30 mg/kg amounted to 80%.

As for `C=CCN1C[C@@H]2CCc3[nH]c4ccccc4c3[C@@H]2C1` (relative stereo) [Compound 66, (±)-3aα,10cα-1,2,3,3a,4,5,6,10c-Octahydro-2-(propenyl)pyrrolo[3,4-c]carbazole Fumarate [1:0.6]], the % of mice protected from abdominal constriction (non-responders) at 30 mg/kg in assay [1] (setting [4]) came out at 100%.

Turning to `CC(C)c1ccc2[nH]c3c(c2c1)[C@@H]1CN(C)C[C@@H]1CC3` (relative stereo) [Compound 39], in assay [1] (setting [4]), the % of mice protected from abdominal constriction (non-responders) at 30 mg/kg was 27%.

Regarding `C[C@@H]1[C@@H]2c3c([nH]c4ccccc34)CC[C@@H]2CN1C` (relative stereo) [Compound 69, (±)-1α,3aβ,10cβ-1,2,3,3a,4,5,6,10c-Octahydro-1,2-dimethylpyrrolo-[3,4-c]carbazole], the responders at 30 mg/kg in assay [1] (setting [4]) was found to be 100%.

Take `CN1C[C@@H]2CCc3[nH]c4cc(C(F)(F)F)ccc4c3[C@@H]2C1` (relative stereo) [Compound 41]: the % of mice protected from abdominal constriction (non-responders) at 30 mg/kg in assay [1] (setting [4]) was 100%.

Regarding `CN1C[C@@H]2CCc3[nH]c4c(Br)cccc4c3[C@@H]2C1` (relative stereo) [Compound 45], in assay [1] (setting [4]), the responders at 30 mg/kg worked out at 73%.

Regarding `COc1cccc2c3c([nH]c12)CC[C@H]1CN(C)C[C@@H]31` (relative stereo) [Compound 32], the % of mice protected from abdominal constriction (non-responders) at 30 mg/kg in assay [1] (setting [4]) worked out at 100%.

As to `CC(C)N1C[C@@H]2CCc3[nH]c4ccccc4c3[C@@H]2C1` (relative stereo) [Compound 65, (±)-3aα,10cα-4,5,6,10c-Octahydro-2-(1-methylethyl)pyrrolo[3,4-c]carbazole Hydrochloride Hydrate [1.0:1.0:0.13]], the % of mice protected from abdominal constriction (non-responders) at 30 mg/kg in assay [1] (setting [5]) was determined as 93%.

For the compound `CN1C[C@@H]2C(c3ccccc3)Cc3[nH]c4ccccc4c3[C@@H]2C1` (mixture of isomers) [Compound 75, (±)-3aα,10cα-1,2,3,3a,4,5,6,10c-Octahydro-2-methyl-4-phenylpyrrolo-[3,4-c]carbazole Fumarate [1.0:0.55]], the % of mice protected from abdominal constriction (non-responders) at 30 mg/kg in assay [1] (setting [4]) amounted to 100%.

Consider `CN1C[C@@H]2CCc3[nH]c4c(C(F)(F)F)cccc4c3[C@@H]2C1` (relative stereo) [Compound 48], for which the % of mice protected from abdominal constriction (non-responders) at 30 mg/kg in assay [1] (setting [4]) is 100%.

Take `CN1CC2CCc3[nH]c4ccccc4c3C2C1` (single isomer, unassigned) [Compound 57]: the responders at 30 mg/kg in assay [1] (setting [4]) came out at 100%.

Consider `CN1C[C@@H]2CCc3[nH]c4cccc(Cl)c4c3[C@@H]2C1` (relative stereo) [Compound 38], for which the responders at 30 mg/kg in assay [1] (setting [5]) worked out at 87%.

As to `CN1C[C@@H]2CCc3[nH]c4ccccc4c3[C@H]2C1` (relative stereo) [Compound 72, (±)-3aα,10cβ-1,2,3,3a,4,5,6,10c-Octahydro-2-methylpyrrolo-[3,4-c]carbazole Fumarate [1.0:0.55]], the responders at 30 mg/kg in assay [1] (setting [5]) was 100%.

As for `CN1C[C@@H]2CCc3[nH]c4cc(F)ccc4c3[C@@H]2C1` (relative stereo) [Compound 30, (±)-3aα,10cα-4,5,6,10c-Octahydro-8-fluoro-2-methylpyrrolo[3,4-c]carbazole Fumarate [1:1.5]], in assay [1] (setting [5]), the responders at 30 mg/kg was determined as 100%.

For orientation: ED50 means the dose at which the effect has come halfway, by size or by number of responders. Read a high ED50 as a need for a large dose. Take `COc1cccc(C2(O)CCCCC2CN(C)C)c1` (stereo not shown) [tramadol, reference compound]: the ED50 in assay [2] was 28.3 mg/kg; in assay [1], 5.4 mg/kg; in assay [3], 1.7 mg/kg.

On to `CN1C[C@@H]2CCc3[nH]c4cccc(F)c4c3[C@@H]2C1` (relative stereo) [Compound 44], for which the responders at 30 mg/kg in assay [1] (setting [5]) is 100%.

For `Cc1cc(C)c2c3c([nH]c2c1)CC[C@H]1CN(C)C[C@@H]31` (relative stereo) [Compound 49], in assay [1] (setting [4]), the % of mice protected from abdominal constriction (non-responders) at 30 mg/kg is 100%.

As for `CN1C[C@@H]2CCc3[nH]c4ccc(C#N)cc4c3[C@@H]2C1` (relative stereo) [Compound 73, (±)-3aα,10cα-1,2,3,3a,4,5,6,10c-Octahydro-9-cyano-2-methylpyrrolo-[3,4-c]carbazole], the % of mice protected from abdominal constriction (non-responders) at 30 mg/kg in assay [1] (setting [4]) was 100%.

For `CN1C[C@@H]2CCc3[nH]c4ccc(F)cc4c3[C@@H]2C1` (relative stereo) [Compound 31], the responders at 30 mg/kg in assay [1] (setting [4]) turned out to be 93%.

Regarding `C[C@H]1C[C@H]2CN(C)C[C@H]2c2c1[nH]c1ccccc21` (relative stereo) [Compound 89, (±)-3aα,5β,10cα-4,5,6,10c-Octahydro-2,5-dimethylpyrrolo[3,4-c]carbazole], the responders at 30 mg/kg in assay [1] (setting [4]) amounted to 100%.
